Results on 15 substances are retold here after patent US20240247080A1, “GLP1/GIP/NPY2 RECEPTOR TRIPLE AGONISTS” (Boehringer Ingelheim International GmbH, priority 2022, published 2024).

Read-outs that look alike come from different tables or passages of the source. Starred links: 1 amine or outer side, 2 acyl side, 3 side chain; linkers in the order of their positions; H or OH if unused. Non-standard residues stand in square brackets, D forms with d. Groups on a side chain read outwards from the residue. No end group written: not given here. *: point of attachment. C20 diacid = O=C(O)CCCCCCCCCCCCCCCCCCC(=O)*; C18 diacid = O=C(O)CCCCCCCCCCCCCCCCC(=O)*; γGlu = O=C(O)[C@H](CCC(=O)[*:2])N[*:1]; εLys = N[C@@H](CCCCN[*:1])C(=O)[*:2]; AEEA = NCCOCCOCC(=O)O; Aib = CC(C)(N)C(=O)O; Ahx = NCCCCCC(=O)O

The target of one assay is T1, hGLP1R (Homo sapiens, UniProt P43220).
T1 construct: expressed in transfected cells; host or cells: HEK-293 cells carrying a CRE-luciferase reporter gene
T1 sequence (P43220 24-463): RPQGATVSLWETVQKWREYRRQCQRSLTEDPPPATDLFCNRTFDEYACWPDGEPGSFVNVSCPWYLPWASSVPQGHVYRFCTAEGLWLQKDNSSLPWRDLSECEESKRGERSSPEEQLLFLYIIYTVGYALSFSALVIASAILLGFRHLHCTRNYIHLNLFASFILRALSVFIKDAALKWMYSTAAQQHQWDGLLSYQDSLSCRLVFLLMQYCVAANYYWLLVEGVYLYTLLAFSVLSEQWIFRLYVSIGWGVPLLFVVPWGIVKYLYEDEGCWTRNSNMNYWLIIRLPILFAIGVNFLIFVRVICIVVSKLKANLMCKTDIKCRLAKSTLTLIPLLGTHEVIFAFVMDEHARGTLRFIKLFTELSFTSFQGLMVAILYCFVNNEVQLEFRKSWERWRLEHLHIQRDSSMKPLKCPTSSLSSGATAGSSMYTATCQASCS
The assay can be described thus: hGLP1R CreLuc reporter gene assay in 0.5% and 100% plasma. To be noted: CreLuc reporter gene assay. It is filed as cell-based. An excerpt:
(§1) Example 1: hGLPR/hGIPR/hNPY2R CreLuc Assay in 0.5% and 100% Plasma
(§2) CHO and HEK-293 recombinant cell lines express a luciferase reporter gene under control of the cAMP responsive element (CRE). As a second recombinant protein the GLP-1 and NPY2 receptors were expressed in the reporter gene HEK cells, and the GIP receptor was expressed in the reporter gene CHO cells, respectively. Stimulation of these recombinant cells with an agonist leads to an increase of intracellular cAMP levels. In the presence of cAMP, the transcription factor CRE binding protein (CREB) binds to the CRE and to the CREB binding protein (CBP), which leads to transcription of the luciferase reporter gene. Peptides upon serial-dilution in 100% DMSO were transferred into 384-well assay plates with 5 μl pre-dispensed assay buffer (1×HBSS, 20 mM HEPES, pH7.4 supplemented with 0.5% human plasma) using acoustic dispensing on a Labcyte ECHO. Cryo-preserved transgenic reporter gene cells were thawed in assay buffer. 20 μl (10.000 cells/well) were added to the plate with the peptides and incubated for 4 hours at 37° C. in a humidified incubator. Following incubation, assay plates are equilibrated to room temperature, followed by addition of 25 μl of Bright-GIo™ Luciferase reagent, incubation at room temperature for 10 minutes and analysis of luminescence (Envision Reader). Concentration response evaluation of compounds was performed with 8 concentrations of peptides (covering four decades). EC50 values were calculated by non-linear regression using sigmoid concentration-response with variable slope. The same assays were run in the presence of 100% plasma with no additional buffer constituents.
For orientation: In a reporter assay the amount or activity of a reporter protein is the signal.

The next assay has as its target T2, hGIPR (Homo sapiens, UniProt P48546).
T2 construct: expressed in transfected cells; host or cells: CHO cells carrying a CRE-luciferase reporter gene
T2 sequence (P48546 22-466): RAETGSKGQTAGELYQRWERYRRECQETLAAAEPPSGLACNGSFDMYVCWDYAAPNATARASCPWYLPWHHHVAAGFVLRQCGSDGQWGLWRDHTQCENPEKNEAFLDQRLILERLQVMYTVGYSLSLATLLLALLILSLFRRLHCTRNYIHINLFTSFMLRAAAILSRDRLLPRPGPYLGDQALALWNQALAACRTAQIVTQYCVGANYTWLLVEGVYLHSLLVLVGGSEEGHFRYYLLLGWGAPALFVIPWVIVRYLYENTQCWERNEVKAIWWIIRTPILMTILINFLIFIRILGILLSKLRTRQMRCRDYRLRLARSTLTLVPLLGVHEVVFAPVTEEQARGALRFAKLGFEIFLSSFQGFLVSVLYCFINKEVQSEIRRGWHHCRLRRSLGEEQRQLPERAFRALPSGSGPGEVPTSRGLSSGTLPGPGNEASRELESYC
The assay can be described thus: hGIPR CreLuc reporter gene assay in 0.5% and 100% plasma. It is filed as cell-based. To be noted: CreLuc reporter gene assay.
Excerpt: as §1, §2

Where [1] appears, read: 0.5% human plasma, read-out: hGLP1R 0.5% hP.
[2] abbreviates: 100% human plasma, read-out: hGLP1R 100% hP.
The mark [3] stands for this setting: 0.5% human plasma, read-out: hGIPR 0.5% hP.
Where [4] appears, read: 100% human plasma, read-out: hGIPR 100% hP.

In the case of “H-Y[Aib]EGTFTSDYSI[Aib]LEEQAQ[Aib]AFVQWLIK([εLys-AEEA-γGlu-γGlu-γGlu-γGlu-γGlu-C20 diacid])GGPSSGASLRHYYNWLTRQRY-NH2 [Compound 45, Y-Aib-E-G-T-F-T-S-D-Y-S-I-Aib-L-E-E-Q-A-Q-Aib-A-F-V-Q-W-L-I-K(1,3)-GGPSSGASLRHYYNWLTRQRY-NH2.C20DA-gGlu-gGlu-gGlu-gGlu-gGlu-OEG-eLys(1,2)]”, the EC50 at hGLP1R (setting [1]) worked out at 0.11 nM; at hGLP1R (setting [2]) it was 1.6 nM; on hGIPR (setting [3]), 0.14 nM; at hGIPR (setting [4]) it was 1.15 nM.
Consider “Y[Aib]EGTFTSDYSI[Aib]LEKQAQ[Aib]EFVQWLIK([AEEA-AEEA-γGlu-γGlu-γGlu-C18 diacid])GGPSEGASLRHYYNWLTRQRY-NH2 [Compound 160, Y-Aib-E-G-T-F-T-S-D-Y-S-I-Aib-L-E-K-Q-A-Q-Aib-E-F-V-Q-W-L-I-K(1,3)-GGPSEGASLRHYYNWLTRQRY-NH2.C18DA-gGlu-gGlu-gGlu-OEG-OEG(1,2)]”, for which the EC50 at hGLP1R (setting [1]) stood at 0.3 nM; on hGIPR (setting [3]), 0.33 nM; at hGIPR (setting [4]) it was 0.91 nM.
“H-Y[Aib]EGTFTSDYSI[Aib]LEKQAQ[Aib]AFVEWLIK([εLys-γGlu-γGlu-γGlu-γGlu-γGlu-γGlu-C20 diacid])GGQSSGASLRHYYNWLTRQRY-NH2 [Compound 123, Y-Aib-E-G-T-F-T-S-D-Y-S-I-Aib-L-E-K-Q-A-Q-Aib-A-F-V-E-W-L-I-K(1,3)-GGQSSGASLRHYYNWLTRQRY-NH2.C20DA-gGlu-gGlu-gGlu-gGlu-gGlu-gGlu-eLys(1,2)]”: the EC50 is 0.24 nM on hGLP1R (setting [1]) and 0.42 nM on hGIPR (setting [3]).
As to “H-Y[Aib]EGTFTSDYSI[Aib]LEKQAQ[Aib]AFVQWLIK([γGlu-γGlu-γGlu-γGlu-C18 diacid])GGPSEGASLRHYYNWLTRQRY-NH2 [Compound 268, Y-Aib-E-G-T-F-T-S-D-Y-S-I-Aib-L-E-K-Q-A-Q-Aib-A-F-V-Q-W-L-I-K(1,3)-GGPSEGASLRHYYNWLTRQRY-NH2.C18DA-gGlu-gGlu-gGlu-gGlu(1,2)]”, the EC50 at hGLP1R (setting [1]) was 0.08 nM; on hGIPR (setting [3]), 0.17 nM; at hGIPR (setting [4]) it was 1.01 nM.
In the case of “H-Y[Aib]EGTFTSDYSI[Aib]LEKQAQ[Aib]AFVQWLIK([AEEA-AEEA-γGlu-γGlu-γGlu-γGlu-C20 diacid])GGPSEGASLRHYYNWLTRQRY-NH2 [Compound 269, Y-Aib-E-G-T-F-T-S-D-Y-S-I-Aib-L-E-K-Q-A-Q-Aib-A-F-V-Q-W-L-I-K(1,3)-GGPSEGASLRHYYNWLTRQRY-NH2.C20DA-gGlu-gGlu-gGlu-gGlu-OEG-OEG(1,2)]”, the EC50 was 0.14 nM at hGLP1R (setting [1]), 3.86 nM on hGLP1R (setting [2]), 0.46 nM on hGIPR (setting [3]) and 1.23 nM on hGIPR (setting [4]).
With “H-Y[Aib]EGTFTSDYSI[Aib]LEKQAQ[Aib]AFVEWLIK([εLys-γGlu-γGlu-γGlu-γGlu-γGlu-γGlu-C20 diacid])GGPSSGISLRHYYNWLTRQRY-NH2 [Compound 94, Y-Aib-E-G-T-F-T-S-D-Y-S-I-Aib-L-E-K-Q-A-Q-Aib-A-F-V-E-W-L-I-K(1,3)-GGPSSGISLRHYYNWLTRQRY-NH2.C20DA-gGlu-gGlu-gGlu-gGlu-gGlu-gGlu-eLys(1,2)]”, the figures for the EC50 on hGLP1R (setting [1]), at hGIPR (setting [3]) and at hGIPR (setting [4]) were 0.09 nM, 0.22 nM and 1.04 nM, respectively.
Consider “H-Y[Aib]EGTFTSDYSI[Aib]LEKQAQ[Aib]AFVEWLIK([AEEA-γGlu-γGlu-γGlu-C18 diacid])GGPSEGASLRHYYNWLTRQRY-NH2 [Compound 300, Y-Aib-E-G-T-F-T-S-D-Y-S-I-Aib-L-E-K-Q-A-Q-Aib-A-F-V-E-W-L-I-K(1,3)-GGPSEGASLRHYYNWLTRQRY-NH2.C18DA-gGlu-gGlu-gGlu-OEG(1,2)]”, for which the values for the EC50 at hGLP1R (setting [1]), on hGIPR (setting [3]) and at hGIPR (setting [4]) were 0.11 nM, 0.16 nM and 1.81 nM, respectively.
Regarding “H-Y[Aib]EGTFTSDYSI[Aib]LEKQAQ[Aib]AFVQWLIK([AEEA-AEEA-γGlu-γGlu-γGlu-γGlu-C18 diacid])GGPEEPASLRHYYNWLTRQRY-NH2 [Compound 57, Y-Aib-E-G-T-F-T-S-D-Y-S-I-Aib-L-E-K-Q-A-Q-Aib-A-F-V-Q-W-L-I-K(1,3)-GGPEEPASLRHYYNWLTRQRY-NH2.C18DA-gGlu-gGlu-gGlu-gGlu-OEG-OEG(1,2)]”, the results for the EC50 on hGLP1R (setting [1]), on hGIPR (setting [3]) and at hGIPR (setting [4]) were 0.14 nM, 0.18 nM and 1.17 nM, respectively.
For “H-Y[Aib]EGTFTSDYSI[Aib]LEKEKQ[Aib]AFVEWLIK([εLys-γGlu-γGlu-γGlu-γGlu-γGlu-γGlu-C20 diacid])GGPSSGASLRHYYNWLTRQRY-NH2 [Compound 69, Y-Aib-E-G-T-F-T-S-D-Y-S-I-Aib-L-E-K-E-K-Q-Aib-A-F-V-E-W-L-I-K(1,3)-GGPSSGASLRHYYNWLTRQRY-NH2.C20DA-gGlu-gGlu-gGlu-gGlu-gGlu-gGlu-eLys(1,2)]”, the results for the EC50 at hGLP1R (setting [1]) and on hGIPR (setting [3]) were 1.48 nM and 0.8 nM, respectively.
Consider “H-Y[Aib]EGTFTSDYSI[Aib]LEKQAQ[Aib]EFVEWLIK([AEEA-γGlu-γGlu-γGlu-C18 diacid])GGPSEGASLRHYYNWLTRQRY-NH2 [Compound 274, Y-Aib-E-G-T-F-T-S-D-Y-S-I-Aib-L-E-K-Q-A-Q-Aib-E-F-V-E-W-L-I-K(1,3)-GGPSEGASLRHYYNWLTRQRY-NH2.C18DA-gGlu-gGlu-gGlu-OEG(1,2)]”, for which the EC50 was 0.41 nM on hGLP1R (setting [1]) and 0.23 nM on hGIPR (setting [3]).
Take “H-Y[Aib]EGTFTSDYSI[Aib]LEKQAQ[Aib]AFVQWLIK([γGlu-γGlu-γGlu-γGlu-γGlu-C20 diacid])GGPESGASLRHYYNWLTRQRY-NH2 [Compound 29, Y-Aib-E-G-T-F-T-S-D-Y-S-I-Aib-L-E-K-Q-A-Q-Aib-A-F-V-Q-W-L-I-K(1,3)-GGPESGASLRHYYNWLTRQRY-NH2.C20DA-gGlu-gGlu-gGlu-gGlu-gGlu(1,2)]”: the EC50 on hGLP1R (setting [1]) is 0.13 nM; at hGLP1R (setting [2]) it was 6.74 nM; at hGIPR (setting [3]), 0.23 nM.
For “H-Y[Aib]EGTFTSDYSI[Aib]LE[Aib]QAQ[Aib]AFVEWLIK([εLys-γGlu-γGlu-γGlu-γGlu-γGlu-γGlu-C20 diacid])GGPSSGASLRHYYNWLTRQRY-NH2 [Compound 199, Y-Aib-E-G-T-F-T-S-D-Y-S-I-Aib-L-E-Aib-Q-A-Q-Aib-A-F-V-E-W-L-I-K(1,3)-GGPSSGASLRHYYNWLTRQRY-NH2.C20DA-gGlu-gGlu-gGlu-glu-gGlu-gGlu-eLys(1,2)]”, at hGIPR (setting [3]), the EC50 is 0.94 nM.
On to “H-Y[Aib]EGTFTSDYSI[Aib]LEKQAQ[Aib]AFVEWLIK([AEEA-AEEA-γGlu-γGlu-γGlu-γGlu-γGlu-C18 diacid])GGPSSGASLRHYYNWLTRQRY-NH2 [Compound 261, Y-Aib-E-G-T-F-T-S-D-Y-S-I-Aib-L-E-K-Q-A-Q-Aib-A-F-V-E-W-L-I-K(1,3)-GGPSSGASLRHYYNWLTRQRY-NH2.C18DA-gGlu-gGlu-gGlu-gGlu-gGlu-OEG-OEG(1,2)]”, for which the EC50 on hGLP1R (setting [1]) is 0.15 nM; on hGIPR (setting [3]), 0.18 nM; on hGIPR (setting [4]), 1.15 nM.
Consider “H-Y[Aib]EGTFTSDYSI[Aib]LEKQAQ[Aib]EFVEWLIK([γGlu-γGlu-γGlu-γGlu-C20 diacid])GGPSEGASLRHYYNWLTRQRY-NH2 [Compound 271, Y-Aib-E-G-T-F-T-S-D-Y-S-I-Aib-L-E-K-Q-A-Q-Aib-E-F-V-E-W-L-I-K(1,3)-GGPSEGASLRHYYNWLTRQRY-NH2.C20DA-gGlu-gGlu-gGlu-gGlu(1,2)]”, for which the EC50 at hGIPR (setting [3]) stood at 0.62 nM; at hGIPR (setting [4]), 2.62 nM.
For “H-Y[Aib]EGTFTSDYSI[Aib]LEKQAQ[Aib]EFVEWLIK([Ahx-γGlu-γGlu-γGlu-γGlu-γGlu-γGlu-C18 diacid])GGPSEGASLRHYYNWLTRQRY-NH2 [Compound 279, Y-Aib-E-G-T-F-T-S-D-Y-S-I-Aib-L-E-K-Q-A-Q-Aib-E-F-V-E-W-L-I-K(1,3)-GGPSEGASLRHYYNWLTRQRY-NH2.C18DA-gGlu-gGlu-gGlu-gGlu-gGlu-gGlu-AHX(1,2)]”, at hGIPR (setting [3]), the EC50 came to 0.71 nM.
